From US8686048B2, “Immunomodulator and anti-inflammatory compounds” (Rhizen Pharmaceuticals SA, priority 2010, dated 2014)

Tests used:
[1] = biological target: T1, h-DHODH (Homo sapiens, UniProt Q02127); assay: Dihydro-orotate dehydrogenase inhibition assay (U937 membrane preparations, DCIP reduction); type: biochemical; conditions: U937 membrane preparation
T1 construct: endogenous in cells; host or cells: U937 cells (membrane fraction, solubilised with 1% octyl glucoside)
Method in brief: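 Detergent (1% octyl glucoside) extract of U937 cell membranes; dihydro-orotate-driven DCIP reduction followed as absorbance change at 600 nm after 4 h at 37° C. IC50 derived from percent inhibition of […].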

[2] = tested on: IL-17; assay: Inhibition of IL-17 release from mouse splenocytes (PMA + ionomycin, ELISA); type: cell-based, Balb/c mice; conditions: Splenocyte, 3 h
Method in brief: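 Balb/c splenocytes (1×10^6 cells/ml, RPMI) were pretreated with inhibitor for 15 min, then stimulated with 10 ng/ml PMA plus 1 μM ionomycin. Supernatant IL-17 was measured by ELISA after 3 h. IC50 was derived from percent inhibition relative to control.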

[3] = tested on: IL17; assay: Inhibition of PHA induced cytokine (IL17) release in PBMC; type: cell-based; conditions: Homo sapiens, 48 h, ELISA
Description: b. Inhibition of PHA Induced Cytokine (IL17) Release:
(§1) PBMC from freshly collected HWB were isolated by density gradient using Histopaque and seeded in a 96-well plate. Wells were incubated with desired concentrations of the inhibitor for 15 min. Proliferation was induced by the addition of 2 μM Phytohemagglutinin at 37° C. in an atmosphere containing 95% CO2. Supernatant was collected after 48 h for estimation of cytokines by ELISA. Data were analyzed using GraphPad Prism. Percent inhibition and IC50 values for each compound were determined based on the percent inhibition due to the test compound compared to the control.

[4] = Single dose oral hepatotoxicity assay; type: in vivo, BALB/cJ mice; conditions: serum, 24 hr after 100 mg/kg po single dose, mice
Description: 5. Single Dose Oral Hepatotoxicity Assay:
BALB/cJ (n=4 or 5/sex) mice aged 8 to 10 weeks, with weights ranging from 18 to 25 g were used. They were housed under conditions of controlled temperature and humidity and a 12-h light/dark cycle. They were given continuous access to bottled spring water and fed a standard chow at ad libitum. The mice were allowed to acclimate for 1 week before use. On the day of experiment mice were fasted overnight for 12 h and administered with test item formulation (100 mg/kg·b·wt/po) or vehicle (10 ml/kg·b·wt/po) by oral route and food was given 4 hr after test item administration. After 24 hr post administration blood samples were collected from orbital sinus of all the animals and serum was separated to assess the hepatotoxicity. Biochemical evaluation of liver function was determined by measuring serum enzyme activities of alanine aminotransferase (ALT) and aspartate aminotransferase (AST) using commercially available kits from Sigma (St. Louis, Mo.).

[5] = tested on: IL-17 secreting cells; assay: Determination of IL-17 producing cells by flow cytometry in PBMC; type: cell-based; conditions: human PBMC, Cytostim, 4 h, read-out: inhibition of IL17 (IL-17 secreting cells normalized to total CD4+ cells)
Description: 3. Determination of IL-17 Producing Cells by Flow Cytometry:
PBMC isolated from human blood were stimulated and treated with desired concentrations of the test compounds prior to stimulation with Cytostim (Milteny Biotech, Germany). After 4 h, IL-17 secreting cells were stained using the IL-17 secretion assay kit as per the manufacturer's instruction and normalized to total CD4+ cells within the PBMC population. Data were analyzed using Graph pad prism.

[6] = tested on: PBMC; assay: Inhibition of PHA induced PBMC proliferation (MTT); type: cell-based; conditions: Homo sapiens, 48 h
Description: a. Inhibition of PHA Induced PBMC Proliferation:
as §1, with “HWB was” for “HWB were”, “[…]. Viability” for “CO2. Supernatant”, “was determined” for “was collected”, “h using an 3-(4,5-Dimethylthiazol-2-yl)-2,5-diphenyltetrazolium bromide (MTT) assay.” for “h for estimation of cytokines by ELISA.”, “Prism. percent” for “Prism. Percent”, “inhibition and/or GI50” for “inhibition and IC50”

[7] = tested on: CD4+ cell; assay: Inhibition of PHA induced CD4+ cell proliferation in human whole blood; type: cell-based; conditions: 48 h, flow cytometry
Description: c. Inhibition of PHA Induced CD4+ Cell Proliferation in Human Whole Blood:
(§2) HWB or were treated with desired concentration of inhibitor and induced with 5 μM PHA. % CD4+ cell viability was determined after 48 h by flow cytometry. Data were analyzed using GraphPad Prism. Percent inhibition and IC50 values for each compound were determined based on the percent inhibition due to the test compound compared to the control.

[8] = tested on: CD4+ cell; assay: Inhibition of PHA induced CD4+ cell proliferation in PBMC; type: cell-based; conditions: Homo sapiens, isolated PBMC, 48 h, flow cytometry
Description: d. Inhibition of PHA Induced CD4+ Cell Proliferation in PBMC:
as §2, with “Isolated PBMC” for “HWB or”, “Prism.” for “Prism. Percent inhibition and”

[9] = patients; cited from earlier work
[10] = tested on: HIV; conditions: at a concentration that can be obtained with conventional dosing; cited from earlier work

T1 sequence (Q02127 whole entry): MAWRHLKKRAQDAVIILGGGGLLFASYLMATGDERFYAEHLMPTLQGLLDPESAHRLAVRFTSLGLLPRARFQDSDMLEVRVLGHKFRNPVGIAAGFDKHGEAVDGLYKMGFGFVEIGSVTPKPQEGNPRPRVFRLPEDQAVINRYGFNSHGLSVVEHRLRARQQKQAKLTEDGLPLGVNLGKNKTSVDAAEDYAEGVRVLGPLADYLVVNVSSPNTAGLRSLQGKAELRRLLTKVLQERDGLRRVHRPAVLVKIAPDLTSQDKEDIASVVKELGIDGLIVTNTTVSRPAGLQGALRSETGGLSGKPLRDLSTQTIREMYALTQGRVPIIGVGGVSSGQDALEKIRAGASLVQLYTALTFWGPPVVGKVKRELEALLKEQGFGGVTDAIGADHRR

Structure (SMILES)	inhibition at 1 µM [1] [%]	IC50 [1] [nM]	inhibition at 10 µM [2] [%]	inhibition at 10 µM [3] [%]	ALT [4] [U/L]	AST [4] [U/L]	melting point [°C]	IC50 [2] [nM]	inhibition at 1 µM [5] [%]	inhibition at 10 µM [6] [%]	inhibition at 1 µM [7] [%]	inhibition at 1 µM [8] [%]	inhibition at 0.3 µM ([1]; compound tested at 0.3 uM (footnote *)) [%]	half-life time [9]	reduction of HIV replication [10]
CCOc1cccc(-c2cc(F)c(NC(=O)c3ccccc3C(=O)O)c(F)c2)c1 [Example 5, 2-(3′-Ethoxy-3,5-difluorobiphenyl-4-ylcarbamoyl)benzoic acid]	85.7	49.8	30.8	> 50	113.6	137.8	136 to 141	–	–	–	–	–	–	–	–
CCCOc1cccc(-c2cc(F)c(NC(=O)c3ccccc3C(=O)O)c(Cl)c2)c1 [Example 19, 2-(3-Chloro-5-fluoro-3′-propoxybiphenyl-4-ylcarbamoyl)benzoic acid]	82.2	44.6	19	–	87.9	126.5	144 to 148	–	–	–	–	–	–	–	–
CCCCOc1cccc(-c2cc(F)c(NC(=O)c3ccccc3C(=O)O)c(Cl)c2)c1 [Example 29, 2-(3′-butoxy-3-chloro-5-fluorobiphenyl-4-ylcarbamoyl)benzoic acid]	94	7.93	46.1	–	67.9	114.4	128 to 130	18800	43.6	> 70	> 65	> 90	–	–	–
CC(C)COc1cccc(-c2cc(F)c(NC(=O)c3ccccc3C(=O)O)c(Cl)c2)c1 [Example 31, 2-(3-Chloro-5-fluoro-3′-isobutoxybiphenyl-4-ylcarbamoyl)benzoic acid]	73.5	44.6	21.1	–	65.1	161.4	202 to 205.5	–	–	–	–	–	–	–	–
CCCCOc1cccc(-c2cc(F)c(NC(=O)c3ccccc3C(=O)O)c(F)c2)c1 [Example 35, 2-(3′-Butoxy-3,5-difluorobiphenyl-4-ylcarbamoyl)benzoic acid]	86.5	11.9	7.76	–	108.3	172	119.3 to 123.3	–	–	–	–	–	–	–	–
O=C(O)c1ccccc1C(=O)Nc1c(F)cc(-c2cccc(OC3CCCC3)c2)cc1Cl [Example 42, 2-(3-Chloro-3′-(cyclopentyloxy)-5-fluorobiphenyl-4-ylcarbamoyl)benzoic acid]	76.9	24	22.3	–	113	189.6	122 to 126	–	–	> 70	–	–	–	–	–
CCc1c[nH]c2ccc(-c3cc(F)c(NC(=O)c4ccccc4C(=O)O)c(F)c3)cc12 [Example 75, 2-[4-(3-ethyl-1H-indol-5-yl)-2,6-difluorophenylcarbamoyl]benzoic acid]	–	1.52	29.4	–	93.9	210.8	157.9 to 160.9	32900	–	> 70	> 65	> 90	100	–	–
Cc1oncc1C(=O)Nc1ccc(C(F)(F)F)cc1 [leflunomide, Leflunomide]	–	–	–	–	–	–	–	–	–	–	–	–	–	approximately 2 weeks	about 75%
